Molecules are shown by their SMILES. Like-named read-outs stand apart in the source and are kept apart here. A value given as a limit tells only on which side of the number the result lay.

The target of this test is T1, IKK2 (Homo sapiens, UniProt O14920).
T1 construct: made in house; host or cells: insect cells (baculovirus, pFastBac; SF9)
T1 sequence (O14920 1-756): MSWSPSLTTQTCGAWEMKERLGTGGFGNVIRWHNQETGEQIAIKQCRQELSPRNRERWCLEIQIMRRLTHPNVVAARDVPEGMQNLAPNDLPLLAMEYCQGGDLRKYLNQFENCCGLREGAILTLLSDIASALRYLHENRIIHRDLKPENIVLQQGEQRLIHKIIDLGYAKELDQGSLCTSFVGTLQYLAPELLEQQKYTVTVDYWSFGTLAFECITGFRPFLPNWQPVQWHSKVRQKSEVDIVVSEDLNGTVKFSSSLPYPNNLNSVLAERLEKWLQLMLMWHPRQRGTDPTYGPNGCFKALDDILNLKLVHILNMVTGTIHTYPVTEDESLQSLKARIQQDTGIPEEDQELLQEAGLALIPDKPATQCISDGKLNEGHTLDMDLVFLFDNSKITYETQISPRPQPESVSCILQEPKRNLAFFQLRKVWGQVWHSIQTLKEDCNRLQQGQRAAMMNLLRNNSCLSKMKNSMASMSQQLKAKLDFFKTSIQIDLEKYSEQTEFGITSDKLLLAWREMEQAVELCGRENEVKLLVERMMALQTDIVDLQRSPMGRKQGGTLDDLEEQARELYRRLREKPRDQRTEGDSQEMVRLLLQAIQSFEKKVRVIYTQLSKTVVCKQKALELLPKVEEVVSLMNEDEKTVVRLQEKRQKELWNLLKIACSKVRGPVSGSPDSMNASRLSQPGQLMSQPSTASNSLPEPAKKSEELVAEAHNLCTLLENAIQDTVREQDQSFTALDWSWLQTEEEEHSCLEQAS
Kind of test: IKKβ Resin Enzyme Assay (IKK2 resin). The format is biochemical. In outline: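 Enzyme: human IKK2 with a C-terminal FLAG tag, baculovirus-expressed, purified as homodimer on anti-FLAG resin. It phosphorylates a biotinylated IκBα peptide with 1 μM ATP plus [γ-33P]ATP in 25 mM Hepes pH 7.6, Mg/Mn, for 30 min at 25° C. Incorporation is counted by scintillation after anion-exchange resin stop.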

The mark [1] stands for this setting: Table 11, read-out: IKK2 Resin IC50.
Where [2] appears, read: Table 4, read-out: IKK2 Resin IC50.
Where [3] appears, read: Table 2, read-out: IKK Resin IC50.
The mark [4] stands for this setting: Table 10, read-out: IKK2 Resin IC50.
[5] abbreviates: Table 14, read-out: IKK2 Resin IC50.
The mark [6] stands for this setting: Table 3, read-out: IKK Resin IC50.
The mark [7] stands for this setting: Table 6, read-out: IKK2 Resin IC 50.

Consider `C#CCN(CC#C)S(=O)(=O)c1ccc(-n2nc(C(N)=O)c3c2-c2cc(N)ccc2CC3)cc1` [Example 425, 8-amino-1-{4-[(diprop-2-ynylamino)sulfonyl]phenyl}-4,5-dihydro-1H-benzo[g]indazole-3-carboxamide], for which the IC50 (Table 21, read-out: IKK2 Resin IC50) is ≤ 1 µM.

Regarding `COCCNC(=O)/C=C/c1ccc(-n2nc(C(N)=O)c3c2-c2cc(NC(=O)c4ccccc4Cl)ccc2CC3)cc1` [Example 309, 8-[(2-chlorobenzoyl)amino]-1-(4-{(1E)-3-[(2-methoxyethyl)amino]-3-oxoprop-1-enyl}phenyl)-4,5-dihydro-1H-benzo[g]indazole-3-carboxamide], under “Table 12, read-out: IKK2 Resin IC50”, the IC50 is ≤ 1 µM.

With `NC(=O)c1nn(-c2ccc(CCC(=O)CO)cc2)c2c1CCc1ccc(NC(=O)c3ccccc3Cl)cc1-2` [Example 299, 8-[(2-chlorobenzoyl)amino]-1-[4-(4-hydroxy-3-oxobutyl)phenyl]-4,5-dihydro-1H-benzo[g]indazole-3-carboxamide], under setting [1], the IC50 was ≤ 1 µM.

On to `NC(=O)c1nn(-c2ccc3c(c2)OCO3)c2c1CCc1ccc(NC(=O)c3cc(N)ccc3Cl)cc1-2` [Example 172, 8-[(5-amino-2-chlorobenzoyl)amino]-1-(1,3-benzodioxol-5-yl)-4,5-dihydro-1H-benzo[g]indazole-3-carboxamide], for which the IC50 under setting [2] is ≤ 1 µM.

Turning to `NC(=O)c1nn(-c2ccc(OCc3ccccc3)cc2)c2c1CCc1ccc(NC(=O)c3ccccc3Cl)cc1-2` [Example 259, 1-[4-(benzyloxy)phenyl]-8-[(2-chlorobenzoyl)amino]-4,5-dihydro-1H-benzo[g]indazole-3-carboxamide], the IC50 (Table 8, read-out: IKK2 Resin IC50) was > 10 µM.

Consider `CN(C)c1ccc(Cl)c(C(=O)Nc2ccc3c(c2)-c2c(c(C(N)=O)nn2-c2ccc(S(C)(=O)=O)cc2)CC3)c1` [Example 120, 8-{[2-chloro-5-(dimethylamino)benzoyl]amino}-1-[4-(methylsulfonyl)phenyl]-4,5-dihydro-1H-benzo[g]indazole-3-carboxamide], for which the IC50 under setting [3] was ≤ 1 µM.

`CN1CCN(c2ccc(Cl)c(C(=O)Nc3ccc4c(c3)-c3c(c(C(N)=O)nn3-c3ccc(F)cc3)CC4)c2)CC1` [Example 258, 8-{[2-chloro-5-(4-methylpiperazin-1-yI)benzoyl]amino}-1-(4-fluorophenyl)-4,5-dihydro-1H-benzo[g]indazole-3-carboxamide]: the IC50 (Table 7, read-out: IKK2 Resin IC50) is ≤ 1 µM.

`NC(=O)c1nn(-c2ccc(O)cc2)c2c1CCc1ccc(NC(=O)c3cc(N)ccc3Cl)cc1-2` [Example 280, 8-[(5-amino-2-chlorobenzoyl)amino]-1-(4-hydroxyphenyl)-4,5-dihydro-1H-benzo[g]indazole-3-carboxamide]: the IC50 under setting [4] was ≤ 1 µM.

On to `CN(C)CCSc1ccc(Cl)c(C(=O)Nc2ccc3c(c2)-c2c(c(C(N)=O)nn2-c2ccc4c(c2)OCO4)CC3)n1` [Example 218, 1-(1,3-benzodioxol-5-yl)-8-{[(3-chloro-6-{[2-(dimethylamino)ethyl]thio}pyridin-2-yl)carbonyl]amino}-4,5-dihydro-1H-benzo[g]indazole-3-carboxamide], for which the IC50 (Table 5, read-out: IKK2 Resin Avg. IC50) is ≤ 1 µM.

In the case of `NC(=O)c1nn(-c2ccccc2F)c2c1CCc1ccc(NC(=O)c3ccccc3Cl)cc1-2` [Example 341, 8-[(2-chlorobenzoyl)amino]-1-(2-fluorophenyl)-4,5-dihydro-1H-benzo[g]indazole-3-carboxamide], the IC50 under setting [5] is ≤ 1 µM.

`COc1cc(C(=O)Nc2ccc3c(c2)-c2c(c(C(N)=O)nn2-c2ccc(S(C)(=O)=O)cc2)CC3)c([N+](=O)[O-])cc1OC` [Example 150, 8-[(4,5-dimethoxy-2-nitrobenzoyl)amino]-1-[4-(methylsulfonyl)phenyl]-4,5-dihydro-1H-benzo[g]indazole-3-carboxamide]: under setting [6], the IC50 is ≤ 1 µM.

For `CS(=O)(=O)c1ccc(Cl)c(C(=O)Nc2ccc3c(c2)-c2c(c(C(N)=O)nn2-c2ccc4c(c2)OCO4)CC3)c1` [Example 185, 1-(1,3-benzodioxol-5-yl)-8-{[2-chloro-5-(methylsulfonyl)benzoyl]amino}-4,5-diliydro-1H-benzo[g]indazole-3-carboxamide], under setting [2], the IC50 is ≤ 1 µM.

As for `COc1ccc(C(=O)Nc2ccc3c(c2)-c2c(c(C(N)=O)nn2-c2ccc(F)cc2)CC3)c(Cl)c1` [Example 233, 8-[(2-chloro-4-methoxybenzoyl)amino]-1-(4-fluorophenyl)-4,5-dihydro-1H-benzo[g]indazole-3-carboxamide], the IC50 under setting [7] was ≤ 1 µM.

Take `COc1cc(Cl)c(C(=O)Nc2ccc3c(c2)-c2c(c(C(N)=O)nn2-c2ccc4c(c2)OCO4)CC3)cc1OC` [Example 174, 1-(1,3-benzodioxol-5-yl)-8-[(2-chloro-4,5-dimethoxybenzoyl)amino]-4,5-dihydro-1H-benzo[g]indazole-3-carboxamide]: under setting [2], the IC50 was ≤ 1 µM.

Take `NC(=O)c1nn(-c2ccc3c(c2)OCO3)c2c1CCc1ccc(NC(=O)c3ccc(O)nc3)cc1-2` [Example 186, 1-(1,3-benzodioxol-5-yl)-8-{[(6-hydroxypyridin-3-yl)carbonyl]amino}-4,5-dihydro-1H-benzo[g]indazole-3-carboxamide]: the IC50 under setting [2] is ≤ 1 µM.

Consider `CS(=O)(=O)c1ccc(-n2nc(C(N)=O)c3c2-c2cc(NC(=O)c4ccc(Cl)cc4N)ccc2CC3)cc1` [Example 117, 8-[(2-amino-4-chlorobenzoyl)amino]-1-[4-(methylsulfonyl)phenyl]-4,5-dihydro-1H-benzo[g]indazole-3-carboxamide], for which the IC50 under setting [3] is ≤ 1 µM.

As for `CN(C)c1ccc(Cl)c(C(=O)Nc2ccc3c(c2)-c2c(c(C(N)=O)nn2-c2ccc(F)cc2)CC3)c1` [Example 237, 8-{[2-chloro-5-(dimethylamino)benzoyl]amino}-1-(4-fluorophenyl)-4,5-dihydro-1H-benzo[g]indazole-3-carboxamide], under setting [7], the IC50 is ≤ 1 µM.

Turning to `NC(=O)c1nn(-c2ccc3c(c2)OCO3)c2c1CCc1ccc(NC(=O)c3c(N)cccc3Cl)cc1-2` [Example 169, 8-[(2-amino-6-chlorobenzoyl)amino]-1-(1,3-benzodioxol-5-yl)-4,5-dihydro-1H-benzo[g]indazole-3-carboxamide], under setting [2], the IC50 was ≤ 1 µM.

Regarding `CS(=O)(=O)c1ccc(-n2nc(C(N)=O)c3c2-c2cc(NC(=O)c4ccccc4[N+](=O)[O-])ccc2CC3)cc1` [Example 102, 1-[4-(methylsulfonyl)phenyl]-8-[(2-nitrobenzoyl)amino]-4,5-dihydro-1H-benzo[g]indazole-3-carboxamide], the IC50 under setting [3] is ≤ 1 µM.

As to `Cc1ccnc(Cl)c1C(=O)Nc1ccc2c(c1)-c1c(c(C(N)=O)nn1-c1cccc(O)c1)CC2` [Example 287, 8-{[(2-chloro-4-methylpyridin-3-yl)carbonyl]amino}-1-(3-hydroxyphenyl)-4,5-dihydro-1H-benzo[g]indazole-3-carboxamide], the IC50 under setting [4] is ≤ 1 µM.

In the case of `NC(=O)/C=C/c1ccc(-n2nc(C(N)=O)c3c2-c2cc(NC(=O)c4ccccc4Cl)ccc2CC3)cc1` [Example 292, 1-{4-[(1E)-3-amino-3-oxoprop-1-enyl]phenyl}-8-[(2-chlorobenzoyl)amino]-4,5-dihydro-1H-benzo[g]indazole-3-carboxamide], the IC50 under setting [1] is ≤ 1 µM.

As to `COc1ccc([N+](=O)[O-])c(C(=O)Nc2ccc3c(c2)-c2c(c(C(N)=O)nn2-c2ccc(S(C)(=O)=O)cc2)CC3)c1` [Example 147, 8-[(5-methoxy-2-nitrobenzoyl)amino]-1-[4-(methylsulfonyl)phenyl]-4,5-dihydro-1H-benzo[g]indazole-3-carboxamide], under setting [6], the IC50 was ≤ 1 µM.

For `NC(=O)c1nn(-c2ccc3c(c2)OCO3)c2c1CCc1ccc(NC(=O)c3cc([N+](=O)[O-])ccc3Cl)cc1-2` [Example 173, 1-(1,3-benzodioxol-5-yl)-8-[(2-chloro-5-nitrobenzoyl)amino]-4,5-dihydro-1H-benzo[g]indazole-3-carboxamide], the IC50 under setting [2] was ≤ 1 µM.

On to `CS(=O)(=O)c1ccc(-n2nc(C(N)=O)c3c2-c2cc(NC(=O)c4ccc([N+](=O)[O-])cc4Cl)ccc2CC3)cc1` [Example 146, 8-[(2-chloro-4-nitrobenzoyl)amino]-1-[4-(methylsulfonyl)phenyl]-4,5-dihydro-1H-benzo[g]indazole-3-carboxamide], for which, under setting [6], the IC50 is ≤ 1 µM.

With `NC(=O)c1nn(-c2cc(F)cc(F)c2)c2c1CCc1ccc(NC(=O)c3ccncc3Cl)cc1-2` [Example 355, 8-[(3-chloroisonicotinoyl)amino]-1-(3,5-difluorophenyl)-4,5-dihydro-1H-benzo[g]indazole-3-carboxamide], under setting [5], the IC50 is ≤ 1 µM.
